From the NIST ThermoML archive (doi:10.1016/j.jct.2012.02.018)
± gives the expanded uncertainty stated by the source.

Conditions: Liquid; for mass density: Vibrating tube method; for viscosity: Concentric cylinders viscometry

CCCC[n+]1ccc(C)cc1.F[B-](F)(F)F [1-butyl-4-methylpyridinium tetrafluoroborate]
Conditions | mass density [kg/m3] | viscosity [mPa·s]
278.16 K, 101.33 kPa | 1202.41 ± 2.7 | –
283.13 K, 2389 kPa | 1200.77 ± 2.2 | –
283.14 K, 99418 kPa | 1237.54 ± 2.9 | –
283.15 K, 101.33 kPa | – | 765.72 ± 41
283.15 K, 60042 kPa | 1223.77 ± 2.6 | –
283.15 K, 79648 kPa | 1230.82 ± 2.7 | –
283.15 K, 89923 kPa | 1234.36 ± 2.8 | –
283.16 K, 49953 kPa | 1219.99 ± 2.5 | –
283.16 K, 69924 kPa | 1227.37 ± 2.6 | –
283.17 K, 101.33 kPa | 1198.9 ± 2.7 | –
283.17 K, 20156 kPa | 1208.22 ± 2.3 | –
283.17 K, 29957 kPa | 1212.19 ± 2.4 | –
283.17 K, 39808 kPa | 1216.08 ± 2.5 | –
283.2 K, 5533 kPa | 1202.11 ± 2.3 | –
283.2 K, 10148 kPa | 1204.06 ± 2.3 | –
293.13 K, 2593 kPa | 1194.15 ± 2.2 | –
293.14 K, 99354 kPa | 1231.77 ± 2.8 | –
293.15 K, 101.33 kPa | – | 338.59 ± 16
293.15 K, 69958 kPa | 1221.46 ± 2.6 | –
293.15 K, 79965 kPa | 1225.08 ± 2.7 | –
293.15 K, 90001 kPa | 1228.6 ± 2.8 | –
293.16 K, 101.33 kPa | 1191.79 ± 2.6 | –
293.16 K, 5220 kPa | 1195.31 ± 2.2 | –
293.16 K, 49933 kPa | 1213.87 ± 2.5 | –
293.16 K, 59929 kPa | 1217.71 ± 2.6 | –
293.17 K, 10236 kPa | 1197.5 ± 2.3 | –
293.17 K, 19941 kPa | 1201.67 ± 2.3 | –
293.17 K, 29914 kPa | 1205.84 ± 2.4 | –
293.17 K, 39693 kPa | 1209.82 ± 2.4 | –
298.13 K, 101.33 kPa | 1188.41 ± 2.6 | –
298.15 K, 101.33 kPa | – | 236.97 ± 11
298.15 K, 1003 kPa | 1190.06 ± 2.2 | –
298.15 K, 5005 kPa | 1191.86 ± 2.2 | –
298.15 K, 10002 kPa | 1194.09 ± 2.3 | –
298.15 K, 19998 kPa | 1198.45 ± 2.3 | –
298.15 K, 29945 kPa | 1202.67 ± 2.4 | –
298.15 K, 39923 kPa | 1206.79 ± 2.4 | –
298.15 K, 49991 kPa | 1210.83 ± 2.5 | –
298.15 K, 60002 kPa | 1214.72 ± 2.5 | –
298.15 K, 70001 kPa | 1218.49 ± 2.6 | –
298.15 K, 79994 kPa | 1222.14 ± 2.7 | –
298.15 K, 90002 kPa | 1225.68 ± 2.8 | –
298.15 K, 99998 kPa | 1229.1 ± 2.8 | –
303.15 K, 101.33 kPa | – | 171.04 ± 7.5
313.13 K, 101.33 kPa | 1178.11 ± 2.6 | –
313.15 K, 101.33 kPa | – | 96.18 ± 4
313.15 K, 59740 kPa | 1205.47 ± 2.5 | –
313.16 K, 2707 kPa | 1180.63 ± 2.2 | –
313.16 K, 20303 kPa | 1188.77 ± 2.3 | –
313.16 K, 29913 kPa | 1193.03 ± 2.3 | –
313.16 K, 49943 kPa | 1201.51 ± 2.5 | –
313.16 K, 69933 kPa | 1209.44 ± 2.6 | –
313.16 K, 89952 kPa | 1216.83 ± 2.7 | –
313.16 K, 99473 kPa | 1220.15 ± 2.8 | –
313.17 K, 5339 kPa | 1181.88 ± 2.2 | –
313.17 K, 10173 kPa | 1184.14 ± 2.2 | –
313.17 K, 39937 kPa | 1197.34 ± 2.4 | –
313.17 K, 79710 kPa | 1213.11 ± 2.6 | –
323.15 K, 101.33 kPa | – | 58.53 ± 2.4
333.13 K, 1547 kPa | 1166.3 ± 2.2 | –
333.13 K, 39448 kPa | 1184.41 ± 2.4 | –
333.14 K, 101.33 kPa | 1164.59 ± 2.6 | –
333.14 K, 49914 kPa | 1188.99 ± 2.4 | –
333.14 K, 60043 kPa | 1193.26 ± 2.5 | –
333.15 K, 101.33 kPa | – | 38.29 ± 1.6
333.15 K, 5146 kPa | 1168.12 ± 2.2 | –
333.15 K, 29917 kPa | 1180.08 ± 2.3 | –
333.15 K, 69942 kPa | 1197.26 ± 2.5 | –
333.16 K, 19866 kPa | 1175.35 ± 2.2 | –
333.16 K, 79463 kPa | 1200.96 ± 2.6 | –
333.16 K, 89996 kPa | 1204.89 ± 2.6 | –
333.17 K, 9837 kPa | 1170.46 ± 2.2 | –
333.17 K, 99595 kPa | 1208.3 ± 2.7 | –
343.14 K, 101.33 kPa | 1157.92 ± 2.5 | –
343.15 K, 101.33 kPa | – | 26.48 ± 1.1
353.13 K, 59133 kPa | 1180.36 ± 2.4 | –
353.14 K, 2498 kPa | 1152.85 ± 2.1 | –
353.14 K, 5035 kPa | 1154.22 ± 2.1 | –
353.14 K, 9690 kPa | 1156.69 ± 2.2 | –
353.14 K, 20367 kPa | 1162.21 ± 2.2 | –
353.14 K, 29942 kPa | 1166.97 ± 2.3 | –
353.14 K, 39870 kPa | 1171.71 ± 2.3 | –
353.14 K, 49991 kPa | 1176.35 ± 2.4 | –
353.14 K, 70001 kPa | 1184.93 ± 2.5 | –
353.15 K, 101.33 kPa | – | 19.17 ± 0.79
353.15 K, 89993 kPa | 1192.71 ± 2.6 | –
353.16 K, 79945 kPa | 1188.9 ± 2.5 | –
353.16 K, 98529 kPa | 1195.8 ± 2.6 | –
363.15 K, 101.33 kPa | – | 14.41 ± 0.6
373.13 K, 59930 kPa | 1168.03 ± 2.4 | –
373.14 K, 2866 kPa | 1138.93 ± 2.1 | –
373.14 K, 40385 kPa | 1158.91 ± 2.3 | –
373.14 K, 49993 kPa | 1163.5 ± 2.3 | –
373.14 K, 69984 kPa | 1172.37 ± 2.4 | –
373.15 K, 101.33 kPa | – | 11.19 ± 0.46
373.15 K, 5031 kPa | 1140.17 ± 2.1 | –
373.15 K, 29936 kPa | 1153.67 ± 2.2 | –
373.15 K, 79614 kPa | 1176.31 ± 2.5 | –
373.15 K, 90002 kPa | 1180.33 ± 2.5 | –
373.15 K, 99124 kPa | 1183.64 ± 2.6 | –
373.16 K, 9772 kPa | 1142.85 ± 2.1 | –
373.17 K, 20168 kPa | 1148.55 ± 2.2 | –
393.14 K, 99382 kPa | 1171.13 ± 2.5 | –
393.15 K, 10459 kPa | 1129.2 ± 2.1 | –
393.15 K, 20029 kPa | 1134.74 ± 2.1 | –
393.15 K, 90001 kPa | 1167.72 ± 2.5 | –
393.16 K, 2068 kPa | 1124.13 ± 2.1 | –
393.16 K, 5306 kPa | 1126.11 ± 2.1 | –
393.16 K, 29942 kPa | 1140.22 ± 2.2 | –
393.17 K, 39803 kPa | 1145.4 ± 2.2 | –
393.17 K, 49942 kPa | 1150.46 ± 2.3 | –
393.17 K, 70000 kPa | 1159.64 ± 2.4 | –
393.17 K, 80173 kPa | 1163.89 ± 2.4 | –
393.18 K, 59764 kPa | 1155.09 ± 2.3 | –
